From ChEMBL document CHEMBL1154445, “Identification of "toxicophoric" features for predicting drug-induced QT interval prolongation” (Eur J Med Chem, 2008)

Columns and labels:
[1] = target: Voltage-gated inwardly rectifying potassium channel KCNH2 (Homo sapiens, UniProt Q12809); assay: Inhibition of human ERG channel in HEK293 cells by voltage-clamp method; details: for pIC50(uM): human
Cavia porcellus [2] = assay: Cardiotoxicity in iv dosed Dunkin-Hartley guinea pig assessed as drug level required to evoke 50 ms QTc prolongation administered as 3 fold cumulative doses measured every 10 seconds at end of every 20 mins follow up period of individual dose by ECG
Cavia porcellus [3] = assay: Cardiotoxicity in Dunkin-Hartley guinea pig assessed as maximal QTc prolongation time at 10 mg/kg, iv administered as 3 fold cumulative doses measured every 10 seconds at end of every 20 mins follow up period of individual dose by ECG; format: toxicity, organism-based; design: dose 10 mg/kg, route intravenous; details: in vivo
Cavia porcellus [4] = assay: Toxicity to Dunkin-Hartley guinea pig assessed as marked bradyarrhythmia and death at 10 mg/kg, iv; format: organism-based; design: dose 10 mg/kg, route intravenous; details: in vivo
Cavia porcellus [5] = assay: Cardiotoxicity in Dunkin-Hartley guinea pig assessed as maximal QTc prolongation time at 3 mg/kg, iv administered as 3 fold cumulative doses measured every 10 seconds at end of every 20 mins follow up period of individual dose by ECG; format: toxicity, organism-based; design: dose 3 mg/kg, route intravenous; details: in vivo

Chain of Voltage-gated inwardly rectifying potassium channel KCNH2 (Q12809 whole entry): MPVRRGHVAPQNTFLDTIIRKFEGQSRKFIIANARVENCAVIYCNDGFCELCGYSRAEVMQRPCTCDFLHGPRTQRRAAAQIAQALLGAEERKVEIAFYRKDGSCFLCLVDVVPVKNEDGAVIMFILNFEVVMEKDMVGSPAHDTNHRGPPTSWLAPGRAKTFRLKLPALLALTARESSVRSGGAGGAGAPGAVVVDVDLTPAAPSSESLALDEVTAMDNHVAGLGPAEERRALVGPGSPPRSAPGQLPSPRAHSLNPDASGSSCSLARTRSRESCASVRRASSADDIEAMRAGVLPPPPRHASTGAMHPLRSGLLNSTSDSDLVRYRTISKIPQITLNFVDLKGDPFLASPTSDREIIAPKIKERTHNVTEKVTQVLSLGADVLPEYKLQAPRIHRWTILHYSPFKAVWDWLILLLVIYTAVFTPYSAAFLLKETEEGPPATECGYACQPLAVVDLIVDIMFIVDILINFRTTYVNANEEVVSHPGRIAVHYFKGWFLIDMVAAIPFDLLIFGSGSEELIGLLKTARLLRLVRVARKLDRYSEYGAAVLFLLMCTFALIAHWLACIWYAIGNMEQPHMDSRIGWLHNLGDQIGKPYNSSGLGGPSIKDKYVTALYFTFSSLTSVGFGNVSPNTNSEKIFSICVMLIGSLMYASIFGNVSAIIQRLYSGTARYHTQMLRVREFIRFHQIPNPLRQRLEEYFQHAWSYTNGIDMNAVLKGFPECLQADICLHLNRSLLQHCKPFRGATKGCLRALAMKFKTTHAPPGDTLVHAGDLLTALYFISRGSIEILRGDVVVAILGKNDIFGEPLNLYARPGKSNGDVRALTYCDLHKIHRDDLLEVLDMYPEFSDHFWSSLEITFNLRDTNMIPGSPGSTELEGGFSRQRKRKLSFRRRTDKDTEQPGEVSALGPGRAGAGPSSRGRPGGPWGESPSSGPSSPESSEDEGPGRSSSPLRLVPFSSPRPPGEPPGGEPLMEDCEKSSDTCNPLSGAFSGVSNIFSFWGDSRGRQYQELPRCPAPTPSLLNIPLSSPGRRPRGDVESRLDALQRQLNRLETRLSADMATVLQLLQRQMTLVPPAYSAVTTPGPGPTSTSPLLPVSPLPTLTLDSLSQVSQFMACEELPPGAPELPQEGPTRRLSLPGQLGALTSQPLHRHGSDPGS

Compound: CN1CCN(C2=Nc3ccccc3Nc3sc(CO)cc32)CC1
- IC50 [1]: 11.5 µM

Compound: CN1CC(=O)N2[C@H](c3ccc4c(c3)OCO4)c3[nH]c4ccccc4c3C[C@@H]2C1=O
- IC50 [1]: 100 µM

Compound: CCCN(CCC)C1CCc2cccc(O)c2C1 (stereo not given) [8-OH-DPAT]
- EC50 (Cavia porcellus [2]): 4.57 µmol/kg
- pEC50 (Cavia porcellus [2]): 2.95
- Emax (Cavia porcellus [3]): 116.3 ms

Compound: COc1ccc(CCN2CCC(Nc3nc4ccccc4n3Cc3ccc(F)cc3)CC2)cc1 [ASTEMIZOLE]
- EC50 (Cavia porcellus [2]): 0.39 µmol/kg
- pEC50 (Cavia porcellus [2]): 3.74

Compound: COc1cc(N)c(Cl)cc1C(=O)NC1CCN(CCCOc2ccc(F)cc2)CC1OC (stereo not given) [CISAPRIDE]
- EC50 (Cavia porcellus [2]): 2.12 µmol/kg
- pEC50 (Cavia porcellus [2]): 3
- Emax (Cavia porcellus [3]): 81.9 ms

Compound: Oc1ccc(CCN2CCC(Nc3nc4ccccc4n3Cc3ccc(F)cc3)CC2)cc1 [DESMETHEYLASTEMIZOLE]
- IC50 [1]: 0.001 µM

Compound: O=C(CCCN1CCC(O)(c2ccc(Cl)cc2)CC1)c1ccc(F)cc1 [HALOPERIDOL]
- EC50 (Cavia porcellus [2]): 0.88 µmol/kg
- pEC50 (Cavia porcellus [2]): 3.48
- Emax (Cavia porcellus [3]): 123.3 ms

Compound: COC(=O)C1=CC[C@@H]2CC[C@H]1N2C [METHYLECGONIDINE]
- pIC50(uM) ([1]; hek293): -2.23

Compound: CN1CCC[C@H]1c1cccnc1 [NICOTINE]
- pIC50(uM) ([1]; hek293): -2.39

Compound: CNCCC(Oc1ccccc1OC)c1ccccc1 (stereo not given) [NISOXETINE]
- Emax (Cavia porcellus [3]): 37.5 ms

Compound: CCC1(c2ccccc2)C(=O)NC(=O)NC1=O [PHENOBARBITAL]
- pIC50(uM) ([1]; HEK293 cells expressing human ERG channel): -3.48

Compound: C=C[C@H]1C[N@@]2CC[C@H]1C[C@@H]2[C@@H](O)c1ccnc2ccc(OC)cc12 [QUINIDINE]
- EC50 (Cavia porcellus [2]): 8.34 µmol/kg
- pEC50 (Cavia porcellus [2]): 2.55
- Emax (Cavia porcellus [3]): 78.6 ms

Compound: Cc1nc2sccn2c(=O)c1CCN1CCC(=C(c2ccc(F)cc2)c2ccc(F)cc2)CC1 [RITANSERIN]
- EC50 (Cavia porcellus [2]): 0.19 µmol/kg
- pEC50 (Cavia porcellus [2]): 4.05
- Activity (Cavia porcellus [4]): Toxic
- Emax (Cavia porcellus [5]): 106.8 ms

Compound: CC(C)NCC(O)c1ccc(NS(C)(=O)=O)cc1 (stereo not given) [SOTALOL]
- EC50 (Cavia porcellus [2]): 6.2 µmol/kg
- pEC50 (Cavia porcellus [2]): 2.77
- Emax (Cavia porcellus [3]): 97.3 ms

Compound: O=C(CCCN1CCC2(CC1)C(=O)NCN2c1ccccc1)c1ccc(F)cc1 [SPIPERONE]
- Emax (Cavia porcellus [3]): 100 ms

Compound: CCCCNc1ccc(C(=O)OCCN(C)C)cc1 [TETRACAINE]
- EC50 (Cavia porcellus [2]): 9.04 µmol/kg
- pEC50 (Cavia porcellus [2]): 2.62
- Emax (Cavia porcellus [3]): 91.5 ms

Compound: O=C(CCCN1CCC(O)(c2cccc(C(F)(F)F)c2)CC1)c1ccc(F)cc1 [TRIFLUPERIDOL]
- EC50 (Cavia porcellus [2]): 7.65 µmol/kg
- pEC50 (Cavia porcellus [2]): 2.51
- Emax (Cavia porcellus [3]): 74.7 ms
